Laboratory results: patent publication US9694003B2, “Formulations and methods for treating high intraocular pressure” (Bridge Pharma, Inc., priority 2015, dated 2017)

Columns and labels:
[1] = system: Escherichia coli, Pseudomonas aeruginosa, Staphylococcus aureus, Aspergillus brasiliensis, Candida albicans; assay: Preservative Challenge Test (USP 51 Antimicrobial Effectiveness Testing), all five organisms; format: cell-based; conditions: ocular formulation without preservatives, concentrations useful for decreasing IOP
Description: METHOD: The standardized Preservative Challenge Test (U.S. Pharmacopeia 51 Antimicrobial Effectiveness Testing) have been used for tests of self-preservation by norketotifen in concentrations to be used for patients suffering from allergic conjunctivitis and xerophthalmia. USP (51) is a standard test used to determine the antimicrobial effectiveness of test articles and ophthalmic formulations. The present tests were using 150 ml of each formulation and covered the mandatory five organisms: Escherichia coli (fermentative G−), Pseudomonas aeruginosa (non-fermentative G−), Staphylococcus aureus (G+), Aspergillus brasiliensis (mold), and Candida albicans (yeast). The number of inoculated cells was 0.5×10^5 per mL and the incubation temperature was 25° C. for all inoculations. Plating for measuring of recoveries were performed weekly over 4 weeks. The norketotifen formulations were defined as being self-preserving only if the numbers of cell colonies remained constant (fungi) and were declining (bacteria) according to the strictly standardized USP 51 protocol. Tests were performed at pH 4.0, pH 4.5, pH 5.0 and pH 6.0 and the test articles were dissolved in BSA/water (BSA=bovine serum albumin) containing at least 0.01 percent norketotifen (calculated as free base). […]
(§1) Yeast and Molds (Fungi): No increase from the initial calculated count at 14 or 28 days.

Escherichia coli = assay: Preservation challenge test (USP 51), E. coli; format: cell-based; conditions: saline formulation, pH 5.0
Description: (§2) METHOD: The standardized Preservative Challenge Test (U.S. Pharmacopeia 51 Antimicrobial Effectiveness Testing) have been used for tests of self-preservation by norketotifen in concentrations to be used for patients suffering from allergic conjunctivitis and xerophthalmia. USP (51) is a standard test used to determine the antimicrobial effectiveness of test articles and ophthalmic formulations. The present tests were using 150 ml of each formulation and covered the mandatory five organisms: Escherichia coli (fermentative G−), Pseudomonas aeruginosa (non-fermentative G−), Staphylococcus aureus (G+), Aspergillus brasiliensis (mold), and Candida albicans (yeast). The number of inoculated cells was 0.5×10^5 per mL and the incubation temperature was 25° C. for all inoculations. Plating for measuring of recoveries were performed weekly over 4 weeks. The norketotifen formulations were defined as being self-preserving only if the numbers of cell colonies remained constant (fungi) and were declining (bacteria) according to the strictly standardized USP 51 protocol. […] All solutions used in the antimicrobial studies were devoid of added preservatives.
(§3) USP Criteria for Tested Microorganisms (Category 1)
(§4) Bacteria: Not less than a 3.0 logarithmic reduction from the initial count to the count at 14 days, and no increase from the counts at 14 days to the counts at 28 days.

Pseudomonas aeruginosa = assay: Preservation challenge test (USP 51), P. aeruginosa; format: cell-based; conditions: saline formulation, pH 5.0
Description: as §2, §3, §4

Staphylococcus aureus = assay: Preservation challenge test (USP 51), S. aureus; format: cell-based; conditions: saline formulation, pH 5.0
Description: as §2, §3, §4

Aspergillus brasiliensis = assay: Preservation challenge test (USP 51), A. brasiliensis; format: cell-based; conditions: saline formulation, pH 5.0
Description: as §2, §3, §1

Candida albicans = assay: Preservation challenge test (USP 51), C. albicans; format: cell-based; conditions: saline formulation, pH 5.0
Description: as §2, §3, §1

trabecular mesh = conditions: within 15 minutes of exposure; cited from earlier work
macrophages = conditions: cited from earlier work
cornea = conditions: topical application to the eye, usual clinical concentration; cited from earlier work
eye = conditions: cited from earlier work
[2] = Solubility of norketotifen HF in non-aqueous carriers; format: physicochemical
Description: The intraocular formulations contain a carrier, such as water which is the carrier for an aqueous solution. Non-aqueous carriers include polyethylene glycol (PEG) and/or propylene glycol (PG) can be used in ophthalmic compositions. […] Norketotifen can be dissolved in water in concentrations up to about 0.2 wt %. Exemplary non-aqueous solvents include polyethylene glycol (about 0.1% to about 90%) and propylene glycol (about 0.1% to about 90%).

rabbits = assay: Ocular irritation/toxicity study, repeated daily ocular doses; format: in vivo; conditions: repeated daily doses for 6 weeks, highest concentration tested
Description: (§5) Fifty-two rabbits (26F+26M) were assigned to four groups and were administered repeated daily doses of norketotifen HF solutions by the ocular route, 0.00, 0.0345, 0.0690 and 0.138 wt % for 6 weeks. […] In addition to regular toxicology parameters, ophthalmic parameters and ocular irritation scores were assessed. Blood samples were collected at predetermined time intervals. Plasma sample were analyzed using a validated LCMS-MS method. Plasma pharmacokinetics was calculated.

[3] = system: intraocular pressure in the eyes of rabbits; assay: Intraocular pressure during repeated daily norketotifen eye-drops; format: in vivo; conditions: 6 rabbits
Description: as §5
In the previously described Ocular Irritation/Toxicity Study (Example 7), intraocular pressure was measured in the eyes of one group of rabbits (3M+3F), before, during and after repeated daily ocular treatment with norketotifen eye-drops. […] The group tested for effects on IOP consisted of 12 eyes and the dose administered was 0.14 wt % and norketotifen was administered daily for 6 weeks, followed by a two-week recovery period without norketotifen administration. Day 42 was the last day of the treatment period and Day 56 was the last day of the recovery period.

| Compound | E. coli CFU/ml (Escherichia coli; Day 0) | E. coli CFU/ml (Escherichia coli; Day 14) | E. coli Log Reduc (Escherichia coli; Day 14) | E. coli CFU/ml (Escherichia coli; Day 28) | E. coli Log Reduc (Escherichia coli; Day 28) | P. aerugin CFU/ml (Pseudomonas aeruginosa; Day 0) | P. aerugin CFU/ml (Pseudomonas aeruginosa; Day 14) | P. aerugin Log Reduc (Pseudomonas aeruginosa; Day 14) | P. aerugin CFU/ml (Pseudomonas aeruginosa; Day 28) | P. aerugin Log Reduc (Pseudomonas aeruginosa; Day 28) | S. aureus CFU/ml (Staphylococcus aureus; Day 0) | S. aureus CFU/ml (Staphylococcus aureus; Day 14) | S. aureus Log Reduc (Staphylococcus aureus; Day 14) | S. aureus CFU/ml (Staphylococcus aureus; Day 28) | S. aureus Log Reduc (Staphylococcus aureus; Day 28) | A. brasil CFU/ml (Aspergillus brasiliensis; Day 0) | A. brasil CFU/ml (Aspergillus brasiliensis; Day 14) | A. brasil Log Reduc (Aspergillus brasiliensis; Day 14) | A. brasil CFU/ml (Aspergillus brasiliensis; Day 28) | A. brasil Log Reduc (Aspergillus brasiliensis; Day 28) | other results |
| --- | --- | --- | --- | --- | --- | --- | --- | --- | --- | --- | --- | --- | --- | --- | --- | --- | --- | --- | --- | --- | --- |
| CN1CCC(=C2c3ccccc3CC(=O)c3sccc32)CC1.O=C(O)/C=C/C(=O)O [KETO, RS-ketotifen hydrogen fumarate, reference compound] | 1.5E+06 CFU/ml | 2.5E+04 CFU/ml | 1.78 | 2.6E+06 CFU/ml | None | 3.1E+05 CFU/ml | 1.5E+4 CFU/ml | 1.31 | 2.3E+05 CFU/ml | 0.13 | 2.0E+06 CFU/ml | 3.3E+06 CFU/ml | None | 3.6E+06 CFU/ml | None | 3.6E+05 CFU/ml | 4.8E+05 CFU/ml | None | 2.0E+05 CFU/ml | 0.25 | self-preservation test, conclusion [1]: not pass the self-preservation test; C. albic CFU/ml (Candida albicans; Day 0): 7.9E+05 CFU/ml; C. albic CFU/ml (Candida albicans; Day 14): 3.0E+03 CFU/ml; C. albic CFU/ml (Candida albicans; Day 28): 1.1E+03 CFU/ml; C. albic Log Reduc (Candida albicans; Day 28): 0.25 |
| benzalkonium chloride [BAK] |  |  |  |  |  |  |  |  |  |  |  |  |  |  |  |  |  |  |  |  | concentration expressing toxicity that targets the trabecular mesh (trabecular mesh): 0.0001%; concentration that stimulates macrophages, increases phagocytosis and releases cytokines (macrophages): 0.0001%; concentration causing corneal neurotoxicity (cornea): 0.01%; concentration inducing toxic ocular effects (eye): ≥ 0.0001% |
| O=C(O)C=CC(=O)O.O=C1Cc2ccccc2C(=C2CCNCC2)c2ccsc21 [norketotifen HF, RS-norketotifen hydrogen fumarate] | 8.5E+05 CFU/ml | <5.0+00 CFU/ml | >5.23 | <5.0+00 CFU/ml | >5.23 | 4.7E+05 CFU/ml | <5.0+00 CFU/ml | >4.79 | <5.0+00 CFU/ml | >4.97 | 2.5E+05 CFU/ml | <5.0+00 CFU/ml | >4.70 | <5.0+00 CFU/ml | >4.70 | 7.0E+05 CFU/ml | 5.75E+02 CFU/ml | 3.09 | 3.10E+02 CFU/ml | 3.35 | solubility in polyethylene glycol (PEG 300) ([2]; PEG 300): about 0.15 percent w/w; solubility in propylene glycol ([2]; propylene glycol): up to 1.0 wt %; No-Observable-Adverse-Effect-Level (NOAEL) (rabbits): 0.138%; IOP (mm Hg; ± SD) ([3]; Day 1 (pretest), 12 eyes): 20.4 ± 2.9 mm Hg; IOP (mm Hg; ± SD) ([3]; Day 42 (treatment), 0.14 wt % eye-drops daily for 6 weeks, P = 0.0005 vs. Day 1): 16.5 ± 1.7 mm Hg; IOP (mm Hg; ± SD) ([3]; Day 56 (recovery, two weeks without dosing), P < 0.0001 vs. Day 42): 20.5 ± 1.6 mm Hg; C. albic CFU/ml (Candida albicans; Day 0): 6.0E+05 CFU/ml; C. albic CFU/ml (Candida albicans; Day 14): <5.0+00 CFU/ml; C. albic Log Reduc (Candida albicans; Day 14): >5.08; C. albic CFU/ml (Candida albicans; Day 28): <5.0+00 CFU/ml; C. albic Log Reduc (Candida albicans; Day 28): >5.08 |
